These results are taken from patent US20210393621A1, “COMBINATION SEROTONIN SPECIFIC REUPTAKE INHIBITOR AND SEROTONIN 1A RECEPTOR PARTIAL AGONIST FOR REDUCING L-DOPA-INDUCED DYSKINESIA” (The Research Foundation for The State University of new York, priority 2018, published 2021).

“Also recorded” adds a separate entry of the source. Where two headings read alike, the source gives them in different places.

The target in series [1] is T1, 5-HT1A receptor (Homo sapiens, UniProt P08908).
T1 sequence (P08908 1-422): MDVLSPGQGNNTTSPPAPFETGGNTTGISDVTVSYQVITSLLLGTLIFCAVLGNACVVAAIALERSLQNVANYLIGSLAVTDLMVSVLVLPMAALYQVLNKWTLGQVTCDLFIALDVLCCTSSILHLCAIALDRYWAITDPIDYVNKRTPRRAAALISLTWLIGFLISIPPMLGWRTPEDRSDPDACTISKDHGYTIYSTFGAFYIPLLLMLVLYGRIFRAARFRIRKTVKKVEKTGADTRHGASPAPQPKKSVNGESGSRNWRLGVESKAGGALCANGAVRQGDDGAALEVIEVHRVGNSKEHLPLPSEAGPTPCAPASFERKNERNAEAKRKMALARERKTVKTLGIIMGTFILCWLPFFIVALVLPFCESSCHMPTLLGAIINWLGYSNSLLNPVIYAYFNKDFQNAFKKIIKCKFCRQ
The settings on record: cited from earlier work.

The target of series [2] is 5-HT2A (Homo sapiens, UniProt P28223). The settings on record: cited from earlier work.
5-HT2A, sequence (P28223 whole entry, species assumed): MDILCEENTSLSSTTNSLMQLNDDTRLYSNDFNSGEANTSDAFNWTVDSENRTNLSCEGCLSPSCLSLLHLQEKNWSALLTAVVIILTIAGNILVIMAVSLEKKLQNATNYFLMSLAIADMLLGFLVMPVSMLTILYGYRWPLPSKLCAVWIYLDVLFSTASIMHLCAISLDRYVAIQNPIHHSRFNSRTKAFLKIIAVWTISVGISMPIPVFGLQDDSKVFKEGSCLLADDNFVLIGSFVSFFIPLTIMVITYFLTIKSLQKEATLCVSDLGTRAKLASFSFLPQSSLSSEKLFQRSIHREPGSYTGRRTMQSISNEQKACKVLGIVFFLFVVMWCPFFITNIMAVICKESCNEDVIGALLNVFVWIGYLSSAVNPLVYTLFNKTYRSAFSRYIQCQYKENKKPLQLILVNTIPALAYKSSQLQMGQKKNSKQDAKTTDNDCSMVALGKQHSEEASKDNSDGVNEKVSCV
Series [3] deals with striatal c-Fos, PPD, PPE, PPT and 5-HT1AR mRNA. Put plainly: Experiment 2: real-time RT-PCR of striatal gene expression.
In series [4] the test system is 6-OHDA-lesioned hemi-parkinsonian rats. As to the kind of experiment: Experiment 1: forepaw adjusting steps (FAS). The format is in vivo, Sprague-Dawley rats. The source says:
Conti et al., 2014). […] Forepaw adjusting steps (FAS): The FAS test is a measure of forelimb akinesia performed according to previous protocols (Bishop et al., 2012; Chang et al., 1999). Data are presented as mean percent intact stepping where the sum of the total steps with the lesioned forepaw was divided by the total steps with the unlesioned forepaw multiplied by 100. Lower percent intact scores indicate greater forelimb akinesia. Prior to baseline, rats received 2 acclimation periods. On-treatment FAS was performed 60 min post-L-DOPA.

Series [5] concerns the target T2, SERT (Rattus norvegicus, UniProt P31652).
T2 construct: 50% occupancy at 1-3 mg/kg in rat cortex and hippocampus ex vivo; from tissue; host or cells: rat cortex and hippocampus
To be noted: rat cortex and hippocampus ex vivo, cited from earlier work.

Series [6] concerns MSNs of dyskinetic 6-OHDA-lesioned rats. Put plainly: Example 2: electrophysiology of corticostriatal transmission and striatal MSN activity. To be noted: vilazodone co-administration with L-DOPA. The format is in vivo. The procedure:
Rats were treated for 5 consecutive days/week, for 2 weeks. On the second day of each week, stepping tests were performed prior to drug administration, and 60 minutes post L-DOPA treatment. Behavioral assessment of LIDs was performed (30-180 min) at the end of each week. […] Electrophysiological studies were conducted to assess the impact of these treatments on corticostriatal transmission and striatal neuronal activity.

Series [7] concerns the target dopamine transporter (DAT) (Homo sapiens, UniProt Q01959). To be noted: read-out: Ki for DAT (dopamine reuptake site); cited from earlier work.
Series [8] addresses 5-HT1D (Homo sapiens, UniProt P28221). The settings on record: cited from earlier work.
The subject of series [9] is unilateral 6-OHDA-lesioned rats. As to the kind of experiment: Example 2: L-DOPA-induced dyskinesias (LIDs) scoring. In kind it is in vivo, Sprague-Dawley rats. To be noted: pretreatment with vilazodone 10 mg/kg or escitalopram 12.5 mg/kg before L-DOPA 5 mg/kg, 2 weeks; hydrochloride. As to the method: 6-OHDA-induced dopaminergic lesions: Adult male Sprague-Dawley rats were randomly assigned to groups receiving either a 6-OHDA or sham lesion. […] [[…] 2019]. […] Rats were treated for 5 consecutive days/week (Mon-Fri), for 2 weeks. […] All rats were evaluated three times per week for the presence of L-DOPA-induced dyskinesias (LIDs) (Wed-Fri) and once for the stepping test (Tue). […] Scores were given over 1 min epochs and classified as axial, limb, orolingual and locomotive. […] Arrows=inhibitory input; dashed arrows=compromised function. The severity of each LID was scored using a standard scale. Each dyskinetic behavior was given an intensity and frequency score, which were then multiplied. The average sum of the products of each LID was determined in each animal.

Series [10] deals with 5-HT2C (Homo sapiens, UniProt P28335). To be noted: cited from earlier work.
5-HT2C, sequence (P28335 33-458, species assumed): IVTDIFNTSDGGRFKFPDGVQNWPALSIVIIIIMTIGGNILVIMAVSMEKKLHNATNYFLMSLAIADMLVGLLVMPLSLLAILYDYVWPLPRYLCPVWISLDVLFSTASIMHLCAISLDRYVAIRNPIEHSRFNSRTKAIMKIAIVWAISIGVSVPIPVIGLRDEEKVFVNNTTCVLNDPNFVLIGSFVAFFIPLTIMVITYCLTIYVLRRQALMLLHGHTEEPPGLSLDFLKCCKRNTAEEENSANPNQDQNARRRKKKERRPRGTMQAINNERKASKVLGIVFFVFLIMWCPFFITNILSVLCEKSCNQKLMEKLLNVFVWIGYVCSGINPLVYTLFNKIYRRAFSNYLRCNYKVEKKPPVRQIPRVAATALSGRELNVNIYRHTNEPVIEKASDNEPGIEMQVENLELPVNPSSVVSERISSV
The conditions of series [11]: cited from earlier work.
Setting [12] is: lesioned striata, VZD 0, 10 or 20 mg/kg + L-DOPA 6 mg/kg daily, day 23, 60 min post-injection.
The mark [13] stands for this setting: administered with either a fatty or light meal.

T2 sequence (P31652 whole entry): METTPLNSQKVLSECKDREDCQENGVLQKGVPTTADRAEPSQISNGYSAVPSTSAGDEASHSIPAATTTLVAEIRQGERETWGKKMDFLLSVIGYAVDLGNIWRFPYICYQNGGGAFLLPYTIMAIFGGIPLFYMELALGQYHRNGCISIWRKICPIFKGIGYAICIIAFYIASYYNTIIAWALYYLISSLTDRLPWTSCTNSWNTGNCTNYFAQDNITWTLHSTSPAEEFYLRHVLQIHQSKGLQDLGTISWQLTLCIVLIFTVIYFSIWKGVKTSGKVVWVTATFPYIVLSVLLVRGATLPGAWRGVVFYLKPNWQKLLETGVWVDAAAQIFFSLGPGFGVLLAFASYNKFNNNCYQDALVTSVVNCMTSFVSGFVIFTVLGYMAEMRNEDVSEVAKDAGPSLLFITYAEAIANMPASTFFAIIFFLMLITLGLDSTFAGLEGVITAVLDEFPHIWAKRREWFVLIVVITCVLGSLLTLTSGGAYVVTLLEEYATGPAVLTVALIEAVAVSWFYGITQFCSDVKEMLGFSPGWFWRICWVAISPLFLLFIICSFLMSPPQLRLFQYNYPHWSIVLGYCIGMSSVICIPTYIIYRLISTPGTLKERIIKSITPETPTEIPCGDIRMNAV
5-HT1D, sequence (P28221 whole entry, species assumed): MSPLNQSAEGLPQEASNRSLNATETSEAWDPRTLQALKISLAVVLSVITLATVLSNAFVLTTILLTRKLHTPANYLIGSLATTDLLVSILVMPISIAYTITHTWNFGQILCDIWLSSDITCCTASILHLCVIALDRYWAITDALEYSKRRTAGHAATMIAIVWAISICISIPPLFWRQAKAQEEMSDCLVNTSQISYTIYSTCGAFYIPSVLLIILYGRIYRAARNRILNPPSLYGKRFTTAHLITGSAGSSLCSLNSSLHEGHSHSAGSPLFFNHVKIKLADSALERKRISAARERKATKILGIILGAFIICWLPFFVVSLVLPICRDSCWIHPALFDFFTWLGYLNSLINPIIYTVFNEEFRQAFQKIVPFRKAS
dopamine transporter (DAT), sequence (Q01959 whole entry, species assumed): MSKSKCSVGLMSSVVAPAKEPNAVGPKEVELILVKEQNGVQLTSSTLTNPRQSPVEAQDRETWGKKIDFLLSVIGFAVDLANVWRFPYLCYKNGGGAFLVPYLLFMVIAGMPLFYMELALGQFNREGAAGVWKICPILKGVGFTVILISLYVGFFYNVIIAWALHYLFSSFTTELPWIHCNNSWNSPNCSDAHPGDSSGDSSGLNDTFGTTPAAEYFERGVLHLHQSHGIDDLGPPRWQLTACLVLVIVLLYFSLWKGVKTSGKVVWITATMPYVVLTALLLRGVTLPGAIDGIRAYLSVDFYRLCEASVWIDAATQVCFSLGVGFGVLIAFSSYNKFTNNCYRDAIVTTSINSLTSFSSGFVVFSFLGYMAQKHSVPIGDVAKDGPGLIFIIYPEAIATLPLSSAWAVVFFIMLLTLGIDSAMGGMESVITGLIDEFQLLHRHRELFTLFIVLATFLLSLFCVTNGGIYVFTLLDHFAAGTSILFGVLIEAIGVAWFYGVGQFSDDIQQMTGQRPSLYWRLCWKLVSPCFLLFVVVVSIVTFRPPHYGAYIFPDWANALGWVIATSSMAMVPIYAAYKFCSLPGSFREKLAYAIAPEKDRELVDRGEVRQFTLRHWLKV

As for `Cl.N#Cc1ccc2[nH]cc(CCCCN3CCN(c4ccc5oc(C(N)=O)cc5c4)CC3)c2c1` [Vilazodone, 5-{4-[4-(5-cyano-3-indolyl)-butyl]-1-piperazinyl}-benzofuran-2-carboxamide hydrochloride], the “5-HT1A receptor IA” value in [1] was 60-70%. For the same molecule, the “affinity for 5-HT2A” value in series [2] is given as “negligible affinity”. In series [3] (FIG. 6B), the “striatal PPT mRNA” value is “significantly reduced it”. In addition, the “striatal 5-HT1AR mRNA” value in [3] (day 23) is listed as “did not affect striatal 5-HT1AR mRNA”. For the same molecule, the “striatal PPE mRNA” value in series [3] (lesioned striata, L-DOPA 6 mg/kg, Vilazodone 20 mg/kg) is listed as “modestly, though significantly reduced”. In [3] (setting [12]), the “striatal PPD mRNA” value is given as “dose-dependently attenuated” and the “striatal c-Fos mRNA” value is given as “diminished”. In addition, the “FAS motor performance versus baseline” value in series [4] (L-DOPA-primed rats, VZD 0, 10 or 20 mg/kg + L-DOPA 6 mg/kg, 60 min post-L-DOPA) is “improvements in rats treated with Vilazodone emerged 7 days later”. Also, in series [4] (VZD 20 mg/kg, Day 29, effect transient), the “FAS stepping versus Vilazodone (0 mg/kg)+L-DOPA (6 mg/kg)” value is “depressed stepping”. Besides, the SERT occupancy in series [5] (10 mg/kg) is 100%. Further, the SERT occupancy in series [5] (1-3 mg/kg) is on record as 50%. For the same molecule, the “spike probability and onset latency” value in series [6] is “normalizes spike probability and onset latency”. Also, in [7], the inhibitory constant (Ki) is 37 nM. Further, the “affinity for 5-HT1D” value in [8] is reported as “negligible affinity”. For the same molecule, the “LIDs score / severity” value in [9] is “most significant effect on attenuating LIDs; also recorded: significantly reduced LIDs”. Also, the “affinity for 5-HT2C” value in [10] was “negligible affinity”. In addition, in series [11] (setting [13]), the AUC increase is reported as 64%-85% and the Cmax increase is 147%-160%. The bioavailability in series [11] (under fed conditions) was 72%.
